As a reminder, the IC50 is the concentration that gives 50% inhibition.

In the experiment the target is T1, GCS (Canis lupus familiaris, UniProt A0A8I3MXG6).
T1 construct: endogenous in cells; host or cells: MDCK (Madin-Darby canine kidney) cells, whole-cell lysate
T1 sequence (A0A8I3MXG6 1-394): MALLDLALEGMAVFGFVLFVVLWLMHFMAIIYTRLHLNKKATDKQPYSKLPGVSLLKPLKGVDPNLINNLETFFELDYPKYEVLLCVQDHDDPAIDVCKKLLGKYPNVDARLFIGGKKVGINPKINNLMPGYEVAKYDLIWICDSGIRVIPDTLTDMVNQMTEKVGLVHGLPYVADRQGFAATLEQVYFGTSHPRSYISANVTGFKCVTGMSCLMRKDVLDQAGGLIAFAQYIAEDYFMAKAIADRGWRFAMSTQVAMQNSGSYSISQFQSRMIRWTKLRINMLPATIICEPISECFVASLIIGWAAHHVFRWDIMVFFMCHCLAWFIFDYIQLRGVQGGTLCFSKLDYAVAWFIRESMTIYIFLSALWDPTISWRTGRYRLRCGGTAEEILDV
Kind of experiment: GCS enzymatic assay (MDCK cell lysate, NBD-ceramide to glucosylceramide, LC/MS). It is filed as biochemical, canine. Particulars: Table 2, the table does not say which of the assays; for Data Range (% inhibition): class symbols D, E, F, NA (not active); for IC50: class symbols A, B, C, read-out: Data Range (IC50 values). A digest of the protocol: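 Dog MDCK cell lysate served as enzyme source, with NBD-ceramide turned over to glucosylceramide and 0.1% DMSO as mock control. The reaction was stopped with acetonitrile. Both lipids were quantified by LC/MS/MS in ESI positive MRM mode against a tolbutamide internal standard, giving IC50 or percent inhibition.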

Consider `CN1CCc2ccc(N3CC[C@@H](C(=O)N[C@H](CN4CCCC4)[C@H](O)c4ccc5c(c4)OCCO5)C3)cc2C1` [Compound 63, (R)-N-((1R,2R)-1-(2,3-dihydrobenzo[b][1,4]dioxin-6-yl)-1-hydroxy-3-(pyrrolidin-1-yl)propan-2-yl)-1-(2-methyl-1,2,3,4-tetrahydroisoquinolin-7-yl)pyrrolidine-3-carboxamide], for which the “Data Range (% inhibition)” value is given as “F (1-49% (or less than 50%))”.
Take `O=C(N[C@H](CN1CCCC1)[C@H](O)c1ccc2c(c1)OCCO2)[C@@H]1CCN(c2ccc(OC3CC3)nc2)C1` [Compound 58, (R)-1-(6-cyclopropoxypyridin-3-yl)-N-((1R,2R)-1-(2,3-dihydrobenzo[b][1,4]dioxin-6-yl)-1-hydroxy-3-(pyrrolidin-1-yl)propan-2-yl)pyrrolidine-3-carboxamide]: the “Data Range (% inhibition)” value is “E (50-74% (or less than 75%))”.
As to `CN1CCC(Oc2ccc([C@@H](O)[C@@H](CN3CCCC3)NC(=O)[C@H]3CCN(c4ccc(Cl)cc4)C3)cc2Cl)CC1` [Compound 49A, (S)-N-((1R,2R)-1-(3-chloro-4-((1-methylpiperidin-4-yl)oxy)phenyl)-1-hydroxy-3-(pyrrolidin-1-yl)propan-2-yl)-1-(4-chlorophenyl)pyrrolidine-3-carboxamide], the “Data Range (% inhibition)” value is given as “F (1-49% (or less than 50%))”.
On to `O=C(N[C@H](CN1CCCC1)[C@H](O)c1ccc2c(c1)OCCO2)[C@H]1CCN(C2CCOCC2)C1` [Compound 9E, (S)-N-((1R,2R)-1-(2,3-dihydrobenzo[b][1,4]dioxin-6-yl)-1-hydroxy-3-(pyrrolidin-1-yl)propan-2-yl)-1-(tetrahydro-2H-pyran-4-yl)pyrrolidine-3-carboxamide], for which the “Data Range (% inhibition)” value is listed as “NA (not active—a negative value was generated for % inhibition)”.
Regarding `O=C(N[C@H](CN1CCCC1)[C@H](O)c1ccc2c(c1)OCCO2)[C@@H]1CCN(c2ccc(F)cc2)C1` [Compound 24, (R)-N-((1R,2R)-1-(2,3-dihydrobenzo[b][1,4]dioxin-6-yl)-1-hydroxy-3-(pyrrolidin-1-yl)propan-2-yl)-1-(4-fluorophenyl)pyrrolidine-3-carboxamide], the IC50 was in the range of 1 to 30 nM.
Same read-out and setting: as for `O=C(N[C@H](CN1CCC1)[C@H](O)c1ccc(OC2COC2)c(Cl)c1)[C@@H]1CCN(c2ccc3cc(F)ccc3c2)C1` [Compound 122, (R)-N-((1R,2R)-3-(azetidin-1-yl)-1-(3-chloro-4-(oxetan-3-yloxy)phenyl)-1-hydroxypropan-2-yl)-1-(6-fluoronaphthalen-2-yl)pyrrolidine-3-carboxamide], the figure is 1 to 30 nM.
With `O=C(N[C@H](CN1CCCC1)[C@H](O)c1ccc2c(c1)OCCO2)[C@@H]1CCN(c2ccc3ccccc3c2)C1` [Compound 70, (R)-N-((1R,2R)-1-(2,3-dihydrobenzo[b][1,4]dioxin-6-yl)-1-hydroxy-3-(pyrrolidin-1-yl)propan-2-yl)-1-(naphthalen-2-yl)pyrrolidine-3-carboxamide], the IC50 fell in the range of 1 to 30 nM.
For the compound `O=C(N[C@H](CN1CCCC1)[C@H](O)c1cc(F)c2c(c1)OCCO2)[C@@H]1CCN(c2ccc3ccccc3c2)C1` [Compound 81, (R)-N-((1R,2R)-1-(8-fluoro-2,3-dihydrobenzo[b][1,4]dioxin-6-yl)-1-hydroxy-3-(pyrrolidin-1-yl)propan-2-yl)-1-(naphthalen-2-yl)pyrrolidine-3-carboxamide], the IC50 was 1 to 30 nM.
Regarding `O=C(N[C@H](CN1CCCC1)[C@H](O)c1ccc2c(c1)OCCO2)[C@@H]1CCN(c2cccc(Oc3ccc(Cl)cc3)n2)C1` [Compound 113, (R)-1-(6-(4-chlorophenoxy)pyridin-2-yl)-N((1R,2R)-1-(2,3-dihydrobenzo[b][1,4]dioxin-6-yl)-1-hydroxy-3-(pyrrolidin-1-yl)propan-2-yl)pyrrolidine-3-carboxamide], the IC50 fell in the range of 1 to 30 nM.
In the case of `O=C(N[C@H](CN1CCCC1)[C@H](O)c1ccc2c(c1)OCCO2)[C@H]1CCN(c2cnc3cccnc3c2)C1` [Compound 90D, (S)-N-((1R,2R)-1-(2,3-dihydrobenzo[b][1,4]dioxin-6-yl)-1-hydroxy-3-(pyrrolidin-1-yl)propan-2-yl)-1-(1,5-naphthyridin-3-yl)pyrrolidine-3-carboxamide], the “Data Range (% inhibition)” value is recorded as “F (1-49% (or less than 50%))”.
Regarding `O=C(N[C@H](CN1CCCC1)[C@H](O)c1cc(F)c2c(c1)OCCO2)[C@]1(O)CCN(c2ccc(Cl)cc2)C1` [Compound 154, (S)-1-(4-chlorophenyl)-N-((1R,2R)-1-(8-fluoro-2,3-dihydrobenzo[b][1,4]dioxin-6-yl)-1-hydroxy-3-(pyrrolidin-1-yl)propan-2-yl)-3-hydroxypyrrolidine-3-carboxamide], the IC50 fell in the range of 1 to 30 nM.
On to `O=C(N[C@H](CN1CCCC1)[C@H](O)c1ccc2c(c1)OCCO2)[C@H]1CCN(c2ccc(Cl)cn2)C1` [Compound 28D, (S)-1-(5-chloropyridin-2-yl)-N-((1R,2R)-1-(2,3-dihydrobenzo[b][1,4]dioxin-6-yl)-1-hydroxy-3-(pyrrolidin-1-yl)propan-2-yl)pyrrolidine-3-carboxamide], for which the “Data Range (% inhibition)” value is “NA (not active—a negative value was generated for % inhibition)”.
Turning to `O=C(N[C@H](CN1CCCC1)[C@H](O)c1ccc2c(c1F)OCCO2)[C@@H]1CCN(c2ccc(Cl)cc2)C1` [Compound 130, (R)-1-(4-chlorophenyl)-N-((1R,2R)-1-(5-fluoro-2,3-dihydrobenzo[b][1,4]dioxin-6-yl)-1-hydroxy-3-(pyrrolidin-1-yl)propan-2-yl)pyrrolidine-3-carboxamide], the “Data Range (% inhibition)” value is given as “E (50-74% (or less than 75%))”.
The same measure, in the same setting: in the case of `O=C(N[C@H](CN1CCCC1)[C@H](O)c1ccc(OCC(F)(F)F)nc1)[C@H]1CCN(c2ccc(Cl)cc2)C1` [Compound 33A, (S)-1-(4-chlorophenyl)-N-((1R,2R)-1-hydroxy-3-(pyrrolidin-1-yl)-1-(6-(2,2,2-trifluoroethoxy)pyridin-3-yl)propan-2-yl)pyrrolidine-3-carboxamide] it was “NA (not active—a negative value was generated for % inhibition)”; in that of `O=C(N[C@H](CN1CCCC1)[C@H](O)c1ccc2c(c1)OCCO2)C1CCN(c2ccc(OC3CC3)c(Cl)c2)C1` (stereo partly shown) [Compound 20D], “E (50-74% (or less than 75%))”.
In the case of `O=C(N[C@H](CN1CCCC1)[C@H](O)c1ccc(OC2CC2)c(Cl)c1)[C@@H]1CCN(c2cccc(Oc3ccc(F)cc3)n2)C1` [Compound 115, (R)-N-((1R,2R)-1-(3-chloro-4-cyclopropoxyphenyl)-1-hydroxy-3-(pyrrolidin-1-yl)propan-2-yl)-1-(6-(4-fluorophenoxy)pyridin-2-yl)pyrrolidine-3-carboxamide], the IC50 fell in the range of 1 to 30 nM.
For `O=C(N[C@H](CN1CCCC1)[C@H](O)c1ccc2c(c1)OCCO2)C1CCN(c2ccc3c(c2)CCCC3)C1` (stereo partly drawn) [Compound 80G, N-((1R,2R)-1-(2,3-dihydrobenzo[b][1,4]dioxin-6-yl)-1-hydroxy-3-(pyrrolidin-1-yl)propan-2-yl)-1-(5,6,7,8-tetrahydronaphthalen-2-yl)pyrrolidine-3-carboxamide], the IC50 fell in the range of 1 to 30 nM.
`O=C(N[C@H](CN1CCCC1)[C@H](O)c1ccc2c(c1)OCCO2)C1CCN(c2ccc(Cl)c(Cl)c2)C1` (stereo in doubt) [Compound 8D, (S)-1-(3,4-dichlorophenyl)-N-((1R,2R)-1-(2,3-dihydrobenzo[b][1,4]dioxin-6-yl)-1-hydroxy-3-(pyrrolidin-1-yl)propan-2-yl)pyrrolidine-3-carboxamide]: the “Data Range (% inhibition)” value is on record as “E (50-74% (or less than 75%))”.
Consider `O=C(N[C@H](CN1CCCC1)[C@H](O)c1ccc(OC2CC2)c(Cl)c1)[C@@H]1CCN(c2ccc(Cl)c(OC3CCCCC3)c2)C1` [Compound 136, (R)-1-(4-chloro-3-(cyclohexyloxy)phenyl)-N-((1R,2R)-1-(3-chloro-4-cyclopropoxyphenyl)-1-hydroxy-3-(pyrrolidin-1-yl)propan-2-yl)pyrrolidine-3-carboxamide], for which the IC50 was in the range of 1 to 30 nM.
Consider `CC(C)(C)Oc1ccc([C@@H](O)[C@@H](CN2CCCC2)NC(=O)[C@@H]2CCN(c3ccc(Cl)cc3)C2)cc1Cl` [Compound 135, (R)-N-((1R,2R)-1-(4-(tert-butoxy)-3-chlorophenyl)-1-hydroxy-3-(pyrrolidin-1-yl)propan-2-yl)-1-(4-chlorophenyl)pyrrolidine-3-carboxamide], for which the IC50 lay in the range of 1 to 30 nM.
As to `O=C(N[C@H](CN1CCCC1)[C@H](O)c1ccc(OC2CC2)c(Cl)c1)[C@@H]1CCN(c2ccccc2)C1` [Compound 150, (R)-N-((1R,2R)-1-(3-chloro-4-cyclopropoxyphenyl)-1-hydroxy-3-(pyrrolidin-1-yl)propan-2-yl)-1-phenylpyrrolidine-3-carboxamide], the IC50 lay within 1 to 30 nM.
For the compound `O=C(N[C@H](CN1CCCCC1)[C@H](O)c1cc(F)c2c(c1)OCCO2)[C@H]1CCN(c2ccc(Cl)cc2)C1` [Compound 44C, (S)-1-(4-chlorophenyl)-N-((1R,2R)-1-(8-fluoro-2,3-dihydrobenzo[b][1,4]dioxin-6-yl)-1-hydroxy-3-(piperidin-1-yl)propan-2-yl)pyrrolidine-3-carboxamide], the “Data Range (% inhibition)” value is “NA (not active—a negative value was generated for % inhibition)”.
